Results on four molecules are retold here after PMC3849035 (MedChemComm, 2011).

For one data set, the system named is VZV (OKA & 07/1). Put plainly: VZV plaque formation assay in HEL cells. Format: cell-based, varicella-zoster virus. To be noted: Human alphaherpesvirus 3, HEL, 120 h.
The next data set deals with Parainfluenza-3 virus. Put plainly: Inhibition of virus-induced cytopathicity, parainfluenza-3 virus in Vero cells. Type of data set: cell-based. (In general: Damage to the host cells serves as the signal in cytopathic effect assays.)
In the next data set the test system is Reovirus-1. Put plainly: Inhibition of virus-induced cytopathicity, Reovirus-1 in Vero cells. Type of data set: cell-based.
The next data set relates to HCMV and VZV. Put plainly: organism not typed. Type of data set: cell-based. To be noted: read-out: EC50's against HCMV and VZV.
The test system of another data set is several tumor cell lines. Put plainly: Cytotoxic activity against tumor cell lines. Type of data set: cell-based.
For a further data set, the system named is HEL cells. As to conditions: microscopically visible alteration of cell morphology.
The next data set relates to HeLa cells. As to conditions: microscopically visible alteration of cell morphology.
The test system of a further data set is Vero cells. To be noted: microscopically visible alteration of cell morphology.
A further data set deals with MDCK cells. To be noted: microscopically visible alteration of cell morphology.
The subject of another data set is HEL, HeLa, Vero, MDCK. As to conditions: four different cell lines (HEL, HeLa, Vero, MDCK).
The next data set concerns VSV. Put plainly: microbe, parasite or virus in culture. Format: cell-based. To be noted: Vesicular stomatitis virus, HeLa.
A further data set has as its system RSV. Put plainly: Inhibition of virus-induced cytopathicity, RSV in HeLa cells. Format: cell-based. To be noted: human respiratory syncytial virus.

Structures are written as SMILES. Where only a bound is given, the exact number is not on record here.

Consider `O=c1[nH]c(=O)n(C2C=CC(O)C2)cc1-c1cccs1` (stereo not shown) [1a, 1-[4′-Hydroxy-2′-cyclopenten-1′-yl]-5-(thiophene-2-yl)-uracil], for which the EC50 is 1.6 to 1.7 µM in the data set with VZV (OKA & 07/1); more than 4 µM in the data set with Parainfluenza-3 virus; more than 4 µM in the data set with Reovirus-1; 1.6 to 2 µM with HCMV and VZV. Further, the “cytotoxic activity against several tumor cell lines” value in the data set on several tumor cell lines is given as “significant cytotoxic activity”. In addition, the “MCC (minimal cytotoxic concentration)” value with HEL cells is not below 4 µM; in the data set with HeLa cells, 20 µM; in the data set on Vero cells, 20 µM; in the data set with MDCK cells, 4 µM. In addition, in the data set with HEL, HeLa, Vero, MDCK, the global cytotoxicity lay in the range of 4 to 20 µM.

`NC(=O)c1ncn([C@@H]2O[C@H](CO)[C@@H](O)[C@H]2O)n1` [Ribavirin, reference compound]: the 50% effective concentration (EC50) in the data set with VSV was 29 µM; with RSV, 10 µM; in the data set with Parainfluenza-3 virus, 85 µM; in the data set on Reovirus-1 it was more than 250 µM.

Turning to `O=c1[nH]c(=O)n(C2C=CC(O)C2)cc1-c1cncs1` (stereo not shown) [1c, 1-[4′-Hydroxy-2′-cyclopenten-1′-yl]-5-(thiazol-5-yl)-uracil], the figures for the EC50 with VZV (OKA & 07/1), with Parainfluenza-3 virus and in the data set with Reovirus-1 were 47 to 56 µM, more than 100 µM and more than 100 µM, respectively. Further, the “MCC (minimal cytotoxic concentration)” value in the data set on HEL cells is on record as not below 100 µM; with HeLa cells, more than 100 µM; in the data set with Vero cells, more than 100 µM; in the data set on MDCK cells, 100 µM.

In the case of `O=c1[nH]c(=O)n(C2C=CC(O)C2)cc1-c1ccco1` (stereo not shown) [1b, 1-[4′-Hydroxy-2′-cyclopenten-1′-yl]-5-(furan-2-yl)-uracil], in the data set on Parainfluenza-3 virus, the EC50 is more than 100 µM. Further, the “MCC (minimal cytotoxic concentration)” value in the data set with HEL cells, in the data set on HeLa cells and in the data set with Vero cells was more than 100 µM throughout.

For orientation: EC50 means the concentration needed to bring the measured effect to its halfway point.
